Results: patent publication US20250228759A1, “ANTI-AGING COSMETIC COMPOSITIONS COMPRISING XANTHOMMATIN” (SEASPIRE, INC., priority 2021, published 2025)

System: NativeSkin® human skin tissues
Test: Gene expression assay (Genemarkers Standard Skin Panel, qPCR) in ex vivo skin
Format: cell-based
Conditions: 24 hrs, N=4
Method: This study was conducted to determine how different concentrations (0.316 μM-10.0 mM) of xanthommatin influences gene expression in ex vivo NativeSkin® human skin tissues (purchased from Genoskin). NativeSkin® human skin models hold normal skin barrier function, a mature stratum corneum, a functional basal layer and all cell types and skin appendages of in vivo human skin.
Gene expression was assessed using Genemarkers Standard Skin Panel, a qPCR-based gene expression panel which contains 107 target genes potentially relevant in skin biology and 5 endogenous control genes. Gene expression was assessed 24 hrs following application of the test material to the skin tissues.
Formulation design. A gel containing either 0.1% or 0.4% (Table 1) by mass percentage of ammonium xanthommatin (Xa) was prepared. Phase A was initiated by adding 0.3 wt % of carbomer into the water without stirring. Next, the solution was heated to 75° C. with mixing to allow the carbomer to disperse throughout the mixture before ammonium xanthommatin was slowly added and allowed to mix for full dissolution. In a separate reaction vessel, Phase B was created with glycerin (3.5%) and phenoxyethanol (0.95%) and mixed well. Phase B was then added to Phase A. The final phase (Phase C), containing 4% deionized water and 0.4% sodium hydroxide, was added to the main phase for neutralization. The gel was then cooled to room temperature.
Tissue equilibration. Native tissues (Genoskin) were equilibrated overnight at 37° C. with 5% CO2 and ˜95% relative humidity. The following day, the equilibrium medium was removed from each well and replaced with 1.0 mL of maintenance medium.
Treatment Media. Tissues were obtained from the abdomen of a person with Fitzpatrick type 2-3 skin. Genoskin facilities mounted 11 mm biopsies into Nativeskin tissue inserts which were used for genetic analysis 5 days later. N=4 biological replicates per treatment group. For WST-8 (−) control tissue (N=2), 10 μL of Triton X-100 (1%) was applied to the surface of the tissue; two untreated tissues served as the WST-8 control.
Tissue and medium collections. A 2 mm biopsy punch was taken from the center for the WST-8 assay. Remaining tissues were placed in a tube containing RNAlater preservative solutions. Tissues were incubated for 1-2 hrs until RNA was isolated. RNA was isolated using an RNeasy Mini kit (Qiagen) following the manufacturer's instructions. Each sample was vacuum concentrated to at least 200 ng/μL to provide sufficient amount of RNA for cDNA synthesis. RNA concentration and purity were determined using a Nanodrop 2000 spectrophotometer.
cDNA was generated using a High Capacity cDNA Synthesis Kit (Applied Biosystems) and was generated from 2000 ng RNA per sample for OpenArray processing. qPCR data quality and statistical analysis was assessed and performed on the raw data files using ThermoFisher Connect Software (Life Technologies). Statistical analysis was performed using the relative quantitation (RQ) method, where the Cq value of the target gene is normalized to the Cq value of an endogenous control gene (selected from one of GAPDH, GUSB, HPRT1, PPIA, and UBC) to generate the delta Cq values, which were used to normalize variability between the samples.
Statistical analysis. Unpaired t-tests were carried out using the ThermoFisher Connect software.

ITGB4 (Integrin alpha-6/beta-4 is a receptor for laminin) gene expression, % Change (10 mM (0.4%) dose group): 58%
ITGB4 (Integrin alpha-6/beta-4 is a receptor for laminin) gene expression, FC (linear fold change) (10 mM (0.4%) dose group): 1.58
ITGB4 (Integrin alpha-6/beta-4 is a receptor for laminin) gene expression, Rq (10 mM (0.4%) dose group): 1.582
POLG1/MDP1 (DNA Polymerase Gamma) gene expression, % Change (10 mM (0.4%) dose group): 71%
POLG1/MDP1 (DNA Polymerase Gamma) gene expression, FC (linear fold change) (10 mM (0.4%) dose group): 1.71
POLG1/MDP1 (DNA Polymerase Gamma) gene expression, Rq (10 mM (0.4%) dose group): 1.713
Structure (SMILES): NC(CC(=O)c1cccc2oc3cc(=O)c4[nH]c(C(=O)O)cc(=O)c4c-3nc12)C(=O)O (stereo not drawn) [ammonium xanthommatin]
HAS2 (Hyaluronan synthase 2) gene expression, % Change (3.16 mM (0.1%) dose group): 74%
HAS2 (Hyaluronan synthase 2) gene expression, FC (linear fold change) (3.16 mM (0.1%) dose group): 1.74
HAS2 (Hyaluronan synthase 2) gene expression, Rq (3.16 mM (0.1%) dose group): 1.74
COL1A1 (collagen) gene expression, % Change (10 mM (0.4%) dose group): 153%
COL1A1 (collagen) gene expression, FC (linear fold change) (10 mM (0.4%) dose group): 2.53
COL1A1 (collagen) gene expression, Rq (10 mM (0.4%) dose group): 2.525
COL3A1 (collagen) gene expression, % Change (10 mM (0.4%) dose group): 137%
COL3A1 (collagen) gene expression, FC (linear fold change) (10 mM (0.4%) dose group): 2.37
COL3A1 (collagen) gene expression, Rq (10 mM (0.4%) dose group): 2.37
FOXO3 (subclass of the forkhead family of transcription factors) gene expression, % Change (10 mM (0.4%) dose group): 114%
FOXO3 (subclass of the forkhead family of transcription factors) gene expression, FC (linear fold change) (10 mM (0.4%) dose group): 2.14
FOXO3 (subclass of the forkhead family of transcription factors) gene expression, Rq (10 mM (0.4%) dose group): 2.142
HSPG2 (Heparan Sulfate Proteoglycan 2) gene expression, % Change (10 mM (0.4%) dose group): 48%
HSPG2 (Heparan Sulfate Proteoglycan 2) gene expression, FC (linear fold change) (10 mM (0.4%) dose group): 1.48
HSPG2 (Heparan Sulfate Proteoglycan 2) gene expression, Rq (10 mM (0.4%) dose group): 1.477
IGF1R (insulin-like growth factor 1) gene expression, % Change (10 mM (0.4%) dose group): 26%
IGF1R (insulin-like growth factor 1) gene expression, FC (linear fold change) (10 mM (0.4%) dose group): 1.26
IGF1R (insulin-like growth factor 1) gene expression, Rq (10 mM (0.4%) dose group): 1.257
KRT14 (keratin 14) gene expression, % Change (10 mM (0.4%) dose group): 72%
KRT14 (keratin 14) gene expression, FC (linear fold change) (10 mM (0.4%) dose group): 1.72
KRT14 (keratin 14) gene expression, Rq (10 mM (0.4%) dose group): 1.721
MFN2 (mitofusin 2) gene expression, % Change (10 mM (0.4%) dose group): 45%
MFN2 (mitofusin 2) gene expression, FC (linear fold change) (10 mM (0.4%) dose group): 1.45
MFN2 (mitofusin 2) gene expression, Rq (10 mM (0.4%) dose group): 1.447
ST14 (Suppressor of tumorigenicity 14 protein) gene expression, % Change (10 mM (0.4%) dose group): 39%
ST14 (Suppressor of tumorigenicity 14 protein) gene expression, FC (linear fold change) (10 mM (0.4%) dose group): 1.39
ST14 (Suppressor of tumorigenicity 14 protein) gene expression, Rq (10 mM (0.4%) dose group): 1.385
